Measurements published in US4912036A, “Rapid differentiation of bacteria using cyclic polypeptide antibiotics” (Eastman Kodak Company, priority 1986, dated 1990).

Test system: S. aureus
Experiment: Inhibition of RIND IX reduction by various cyclic polypeptide antibiotics
Assay type: cell-based, Staphylococcus aureus
Details: for Corrected % Inhibition: 635 nm
Experimental: The following materials were used in this example: stock solutions of RIND IX compound dispersion prepared as described above, glucose (10% in water), trimethyl-1,4-benzoquinone ETA (1.5 mg/ml methanol), and the antibiotics (1 mg/ml in dimethylsulfoxide). S. aureus cells were grown as described above. The final cell concentration in the assay mixture was about 4.3×10^8 cells/ml.
Test solutions were prepared by adding in the order: 1.2 ml of HEPES buffer, 50 μl glucose solution, 1.5 ml of RIND IX dispersion, 100 μl of antibiotic solution, 100 μl of cell suspension and 25 μl of ETA solution. Control solutions were prepared as described in Examples 2 and 3. Optical density readings (OD) were measured at 635 nm at 0 minutes and after incubation at 37° C. for 30 minutes for test and control solutions, and the change in density (ΔOD) was determined. Table VI below lists the results, expressed as corrected percent inhibition of the reduction of the RIND compound. The corrected percent inhibition is calculated by dividing the difference between the ΔOD obtained from the Cell Control without antibiotic and the ΔOD of the test solution, by ΔOD of the Cell Control without antibiotic. All readings were corrected by subtracting readings of the appropriate background Controls.
Solutions containing 2.9 ml HEPES, 50 μl of the antibiotic solution and 100 μl cell solution were incubated at 37° C. for 30 minutes, centrifuged for 10 minutes and decanted. The resulting pellet was then treated with 1.4 ml HEPES, 50 μl glucose solution, 1.5 ml RIND IX dispersion and 25 μl ETA solution, mixed well and the densities recorded as described above in Method 1. The corrected percent inhibition data was calculated as described in Method 1 above.

With gramicidin S the “inhibition of the ability of S. aureus to reduce the RIND compound, in words” value (Methods 1 and 2) was “inhibits the ability of S. aureus, a gram-positive bacterium, to reduce the RIND compound”, the “Corrected % Inhibition” value (Test Method 1 (antibiotic in the test solution), S. aureus about 4.3×10^8 cells/ml, 100 μl of 1 mg/ml antibiotic solution, 30 minutes at 37° C.) was 95.6% and the “Corrected % Inhibition” value (Test Method 2 (cells preincubated with 50 μl antibiotic solution 30 minutes, centrifuged, pellet assayed), S. aureus) was 80.0%.
